These results are taken from patent US9133154B2, “Substituted 3-phenylpropylamine derivatives for the treatment of ophthalmic diseases and disorders” (Acucela Inc., priority 2013, dated 2015).

“Also recorded” adds a separate entry of the source. Read-outs that look alike come from different tables or passages of the source.

In assay [1] the target is T1, recombinant human RPE65 and LRAT (visual cycle isomerase) (Homo sapiens, UniProt Q16518).
T1 sequence (Q16518 2-533): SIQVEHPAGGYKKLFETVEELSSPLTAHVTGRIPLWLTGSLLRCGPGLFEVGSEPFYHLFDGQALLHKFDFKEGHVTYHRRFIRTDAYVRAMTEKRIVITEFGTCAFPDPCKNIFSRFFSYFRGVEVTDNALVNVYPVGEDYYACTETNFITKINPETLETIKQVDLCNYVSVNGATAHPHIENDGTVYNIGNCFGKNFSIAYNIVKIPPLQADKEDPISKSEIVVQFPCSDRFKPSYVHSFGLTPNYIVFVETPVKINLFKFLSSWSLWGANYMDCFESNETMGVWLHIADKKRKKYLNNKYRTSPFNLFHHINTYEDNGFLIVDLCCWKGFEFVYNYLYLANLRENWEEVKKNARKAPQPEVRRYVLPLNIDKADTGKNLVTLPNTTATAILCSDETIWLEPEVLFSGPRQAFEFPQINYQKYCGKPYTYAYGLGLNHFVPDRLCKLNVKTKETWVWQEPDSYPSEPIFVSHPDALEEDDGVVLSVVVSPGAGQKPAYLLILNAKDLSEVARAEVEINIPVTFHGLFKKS
Put plainly: Human in vitro isomerase inhibition assay. The following applies: comparison compounds.

Assay [2] deals with retinal isomerase activity (recovery of 11-cis-retinal). As to the kind of experiment: Comparative in vivo murine isomerase assay, dose response. The following applies: BALB/c mice, 2 hours; for Avg. % Inhibition: 11-cis-retinal, drug vs. recovery control. Details: species or system BALB/c mice. The protocol:
(§1) All test compounds were stored at room temperature, dessicated.
On the day prior to dose administration compound A and compound D were weighed into new empty glass vials. The compounds were dissolved in di-water at the concentration of 0.833 mg/mL compound A and 0.892 mg/mL compound D, serially diluted into various concentrations, and stored overnight at 4° C.
56 Male BALB/c mice (Charles River Laboratories) were used for this study. The mice were approximately 8 weeks at the initiation of dosing with an average body weight of 24 grams.
The day prior to dose administration 56 BALB/c mice were placed into a dark room and dark adapted for a minimum of 12 hours prior to dose administration. The mice were maintained in the dark for the duration of the study.
(§2) Each animal was removed from its cage and dosed accordingly to the study design in Table 4 (see below). Each animal was administered 0.1 mL of the appropriate compound or vehicle via oral gavage using a 1 mL syringe fitted with a 23 gauge oral gavage needle. Two hours following dose administration, animals were removed from the dark and exposed to 5000 Lux white light for 10 minutes to photobleach their eyes. Following the completion of the photobleach the animals were returned to the dark for 2 hours to allow for the regeneration of 11-cis-retinal in the eyes. Two hours after photobleaching each animal was euthanized with carbon dioxide followed by cervical dislocation, in the dark under red light. The light control group was euthanized immediately following photobleaching. Immediately following the cervical dislocation both eyes of each animal were removed and transferred into separate tubes, flash frozen in liquid nitrogen and stored in the dark at −80° C. until processing and analysis.
(§3) All sample processing procedures were performed in the dark under red light.
Extracted samples were analyzed using an Agilent 1100 HPLC system according to the procedure outlined in Table 6 (see below)
(§4) HPLC analysis of the eyes measures the peak area units of the 110cis-Ral-Oxime_syn. Signal.
(§5) Data analysis % inhibition (drug vs. recovery control). % control (drug vs. light control), and One-way ANOVA (followed by Tukey's Multiple Comparison) were performed using peak area units and performed by Prism software. Data are represented as mean and standard deviation.

Assay [3] deals with regeneration of 11-cis-retinal. As to the kind of experiment: Single dose time course in the in vivo isomerase assay at 0.3 mg/kg. Details: species or system BALB/c mice. Particulars: BALB/c mice, single oral 0.3 mg/kg; for activity at 0.3 mg/kg: Mus musculus, read-out: Percent Control (Avg. % Inhibition). The protocol:
as §1
The compounds were dissolved in di-water at the concentration of 0.068 mg/mL and stored overnight at 4° C.
52 Male BALB/c mice (Charles River Laboratories) were used for this study. The mice were approximately 8 weeks at the initiation of dosing with an average body weight of 23 grams.
The day prior to dose administration 52 BALB/c mice were placed into a dark room and dark adapted for a minimum of 12 hours prior to dose administration. The mice were maintained in the dark for the duration of the study.
as §2, with “Table 10” for “Table 4”, “appropriate test article” for “appropriate compound”, “vehicle orally” for “vehicle via oral gavage”, “needle. At 2, 4, 6, 8, 16 or 24” for “needle. Two”
as §3
Extracted samples were analyzed using an Agilent 1100 HPLC system according to the procedure outlined in Table 12 (see below)
as §4, §5

In assay [4] the test system is isomerase (recovery of 11-cis-retinal after bleaching). As to the kind of experiment: In vivo murine isomerase assay. The following applies: mice, oral gavage.
Procedure: The capability of compounds described herein to inhibit isomerase was determined by an in vivo murine isomerase assay. […] The recovery of 11-cis-retinal after bleaching can be used to estimate the activity of isomerase in vivo. Delayed recovery, as represented by lower 11-cis-retinal oxime levels, indicates inhibition of isomerization reaction.
Mice were gavaged with the test compound. […] The mice were allowed to recover 2 hours in the dark. The animals were then sacrificed by carbon dioxide inhalation. Retinoids were extracted from the eye and the regeneration of 11-cis-retinal was assessed at various time intervals.
After the mice were sacrificed, the eyes were immediately removed and placed in liquid nitrogen for storage.
The eyes were placed in 500 μL of bis-tris propane buffer (10 mM, pH˜7.3) and 20 μL of 0.8M hydroxile amine (pH˜7.3). The eyes were cut up into small pieces with small iris scissors and then thoroughly homogenized at 30000 rpm with a mechanical homogenizer (Polytron PT 1300 D) in the tube until no visible tissue remained. 500 μL of methanol and 500 μL of heptane were added to each tube. The tubes were attached to a vortexer so that the contents were mixed thoroughly for 15 minutes in room temperature. The organic phase was separated from the aqueous phase by centrifugation for 10 min at 13K rpm, 4° C. 240 μL of the solution from the top layer (organic phase) was removed and transferred to clean 300 μl glass inserts in HPLC vials using glass pipette and the vials were crimped shut tightly.
The samples were analyzed on an Agilent 1100 HPLC system with normal phase column: SILICA (Beckman Coutlier, dp 5 μm, 4.6 mM×250 mM). […] Loading volume for each sample was 100 μA detection wavelength was 360 nm. The area under the curve for 11-cis retinal oxime was calculated by Agilent Chemstation software and was recorded manually. Data processing was performed using Prizm software.
Positive control mice (no compound administered) were sacrificed fully dark-adapted and the eye retinoids analyzed. Light (bleached) control mice (no compound administered) were sacrificed and retinoids isolated and analyzed immediately after light treatment.
A time course study was performed to determine the isomerase inhibitory activity of the test compound. […] The animals were then “photo-bleached” (5000 Lux white light for 10 minutes) at 2, 4, 8, 16 and 24 hours after dosing, and returned to darkness to allow recovery of the 11-cis-retinal content of the eyes. Mice were sacrificed 2 hours after bleaching, eyes were enucleated, and retinoid content is analyzed by HPLC.
Recovery control mice (vehicle-only treated) were light-treated and left to recover for 2 hours in the dark before sacrifice and analysis. Light control mice (vehicle only treated) were sacrificed for analysis immediately after photo-bleaching.
An in vivo dose response isomerase inhibition study was performed with test compound. […] Recovery and retinoid analysis were performed as described above. Dark control mice were vehicle-only treated, sacrificed fully dark adapted without light treatment, and analyzed. Recovery control mice and light control mice were included in the study as per the initial phase.

The term IC50 denotes the concentration at which inhibition is half-maximal. For `NCC[C@@H](O)c1cccc(NCC2CCCCC2)c1`, the IC50 in assay [1] is 6.3 nM.

With `NCCC(O)c1cccc(OCC2CCCCO2)c1` (stereo not shown) [compound D, reference compound], the “Avg. % Inhibition” value in assay [2] (oral 0.3 mg/kg, 0.3 mg/kg) was “no inhibition”; in assay [2] (oral 3 mg/kg, 3 mg/kg) it was “same level of inhibition”. In addition, the “significance of inhibitory effect on the recovery of 11-cis-retinal vs. recovery control” value is “statistically significant difference, P<0.001 for 1 and 3 mg/kg dose levels; also recorded: significant inhibitory effect at 1 mg/kg and 3 mg/kg dose levels” in assay [2] (single oral dose 0.03-3 mg/kg); “not a statistically significant difference, P>0.05 for any time points; also recorded: no significant inhibitory effect at any time points; also recorded: did not exhibit a significant difference from the control group at any time point” in assay [3] (2, 4, 6, 8, 16 and 24 hours, 0.3 mg/kg). In assay [2] (single oral dose), the “IC50 (dose response experiment)” value turned out to be 0.59 mg/kg. Further, the “dose at which 11-cis-retinal recovery was inhibited by 50%” value in assay [2] (single oral dose) is reported as 0.59 mg/kg. Moreover, the activity at 0.3 mg/kg in assay [3] (time point 2 hours) is 86.8%; in assay [3] (time point 4 hours), 102%; in assay [3] (time point 6 hours) it was 87.9%; in assay [3] (time point 8 hours), 94.6%; in assay [3] (time point 16 hours), 104%; in assay [3] (time point 24 hours) it was 89.5%. Also, in assay [1], the IC50 was found to be 24 nM.

As a reminder, the % Inhibition is how much of the control response was suppressed. `NCC[C@@H](O)c1cccc(OCC2CCCOC2)c1` (mixture of isomers) [Example 3, (1R)-3-Amino-1-(3-((tetrahydro-2H-pyran-3-yl)methoxy)phenyl)propan-1-ol]: the “% Inhibition” value in assay [4] (dose 0.3 mg/kg, time 2 h) was 75.1%.

As for `COC(=O)N1CCC(COc2cccc([C@H](O)CCN)c2)CC1` [Example 17, (R)-Methyl 4-((3-(3-amino-1-hydroxypropyl)phenoxy)methyl)piperidine-1-carboxylate], the “% Inhibition” value in assay [4] (dose 1 mg/kg, time 4 h) turned out to be 85%.
